Assay results taken from PMC2713172 (Biochemistry, 2008).

Legend:
CYP2C9 F100L mutant [1] = target: T1, CYP2C9 F100L mutant (Homo sapiens, UniProt P11712, F100L)
CYP2C9 F114L mutant [2] = target: T2, CYP2C9 F114L mutant (Homo sapiens, UniProt P11712, F114L)
CYP2C9 F476L mutant [3] = target: T3, CYP2C9 F476L mutant (Homo sapiens, UniProt P11712, F476L)
CYP2C9 F114W mutant [4] = target: T4, CYP2C9 F114W mutant (Homo sapiens, UniProt P11712, F114W)
CYP2C9 F476W mutant [5] = target: T5, CYP2C9 F476W mutant (Homo sapiens, UniProt P11712, F476W)
[6] = target: T6, CYP2C9 F114W/F476W double mutant (Homo sapiens, UniProt P11712, F114W/F476W)
wild-type CYP2C9 [7] = target: T7, wild-type CYP2C9 (Homo sapiens, UniProt P11712)
CYP2C9 F100L mutant [8] = target: T1, CYP2C9 F100L mutant; settings: F100L
CYP2C9 F114L mutant [9] = target: T2, CYP2C9 F114L mutant; settings: F114L
CYP2C9 F476L mutant [10] = target: T3, CYP2C9 F476L mutant; settings: F476L
CYP2C9 F114W mutant [11] = target: T4, CYP2C9 F114W mutant; settings: F114W
[12] = target: T8, CYP2C9 F114L/F476L double mutant (Homo sapiens, UniProt P11712, F114L/F476L); settings: F114L/F476L
[13] = target: T6, CYP2C9 F114W/F476W double mutant; settings: F114W/F476W
CYP2C9 F476W mutant [14] = target: T5, CYP2C9 F476W mutant; remark: listed apart in the source
CYP2C9 F476W mutant [15] = target: T5, CYP2C9 F476W mutant; assay: in vitro; settings: pH 7.4
[16] = target: T6, CYP2C9 F114W/F476W double mutant; assay: in vitro; settings: pH 7.4
wild-type CYP2C9 [17] = target: T7, wild-type CYP2C9; assay: biochemical
CYP2C9 F100L mutant [18] = target: T1, CYP2C9 F100L mutant; assay: biochemical
CYP2C9 F476L mutant [19] = target: T3, CYP2C9 F476L mutant; assay: biochemical
CYP2C9 F114W mutant [20] = target: T4, CYP2C9 F114W mutant; assay: biochemical
CYP2C9 F476W mutant [21] = target: T5, CYP2C9 F476W mutant; assay: biochemical
[22] = target: T8, CYP2C9 F114L/F476L double mutant; assay: biochemical
[23] = target: T6, CYP2C9 F114W/F476W double mutant; assay: biochemical
CYP2C9 F476W mutant [24] = target: T5, CYP2C9 F476W mutant; assay: 1H-NMR T1 relaxation, distances of ligand protons from the heme iron
wild-type CYP2C9 [25] = target: T7, wild-type CYP2C9; remark: listed apart in the source

## C[C@H](C(=O)O)c1ccc(-c2ccccc2)c(F)c1 [(S)-flurbiprofen]
CYP2C9 F100L mutant [1]
  percent of wild-type kcat/Km: 100%
CYP2C9 F100L mutant [1]; substrate hydroxylation
  kcat: 12.3 ± 0.7 min⁻¹
CYP2C9 F114L mutant [2]
  percent of wild-type kcat/Km: 28%
CYP2C9 F476L mutant [3]; F476L
  percent of wild-type kcat/Km: 29%
CYP2C9 F476L mutant [3]; F476→L mutation vs wild-type
  decrease of the efficiency of metabolism: 70%
CYP2C9 F114W mutant [4]
  percent of wild-type kcat/Km: 120%
CYP2C9 F114W mutant [4]; substrate hydroxylation
  kcat: 9.2 ± 0.4 min⁻¹
CYP2C9 F476W mutant [5]
  decrease of efficiency of turnover relative to wild-type: 20 fold
  percent of wild-type kcat/Km: 5%
CYP2C9 F476W mutant [5]; substrate hydroxylation
  kcat: 1.6 ± 0.2 min⁻¹
[6]
  percent of wild-type kcat/Km: 3%
[6]; substrate hydroxylation
  kcat: 3.1 ± 0.08 min⁻¹
wild-type CYP2C9 [7]; WT + ligand, used for the NMR distance calculation
  fraction high spin: 0.16
wild-type CYP2C9 [7]; Wild-type
  percent of wild-type ΔA/K: 100%
  ΔA/K: 5.3 μM^−1 × 10^−3
  ΔAmax (maximum observed difference 390–420 nm): 18 ± 0.5 ×10^−3
CYP2C9 F100L mutant [8]
  percent of wild-type ΔA/K: 137%
  ΔA/K: 7.3 μM^−1 × 10^−3
  ΔAmax (maximum observed difference 390–420 nm): 16 ± 0.3 ×10^−3
CYP2C9 F114L mutant [9]
  percent of wild-type ΔA/K: 46%
  ΔA/K: 2.4 μM^−1 × 10^−3
  ΔAmax (maximum observed difference 390–420 nm): 10 ± 0.4 ×10^−3
CYP2C9 F476L mutant [10]
  percent of wild-type ΔA/K: 23%
  ΔA/K: 1.2 μM^−1 × 10^−3
  ΔAmax (maximum observed difference 390–420 nm): 11 ± 0.4 ×10^−3
CYP2C9 F114W mutant [11]
  percent of wild-type ΔA/K: 160%
  ΔA/K: 8.5 μM^−1 × 10^−3
  ΔAmax (maximum observed difference 390–420 nm): 34 ± 0.4 ×10^−3
[12]
  percent of wild-type ΔA/K: 8%
  ΔA/K: 0.4 μM^−1 × 10^−3
  ΔAmax (maximum observed difference 390–420 nm): 4.4 ± 0.2 ×10^−3
[13]
  percent of wild-type ΔA/K: 6%
  ΔA/K: 0.3 μM^−1 × 10^−3
  ΔAmax (maximum observed difference 390–420 nm): 7.3 ± 0.4 ×10^−3
CYP2C9 F476W mutant [14]
  H2O2/O2: 0.71
  H2O/Metabolite: 1.6
CYP2C9 F476W mutant [14]; coupling efficiency
  Metabolite/NADPH: 0.06
CYP2C9 F476W mutant [15]
  Km at 20 min: 105 ± 3.9 µM
[16]
  Km at 20 min: 237 ± 11.8 µM
wild-type CYP2C9 [17]
  Kd: 3.4 ± 0.4 µM
CYP2C9 F100L mutant [18]
  Kd: 2200 ± 200 nM
CYP2C9 F476L mutant [19]
  Kd: 9.1 ± 1 µM
CYP2C9 F114W mutant [20]
  Kd: 4 ± 0.2 µM
CYP2C9 F476W mutant [21]
  Kd: 18.3 ± 1.9 µM
[22]
  Kd: 9.9 ± 1.3 µM
[23]
  Kd: 22.3 ± 4.1 µM
CYP2C9 F476W mutant [24]; proton H2
  T1, 2C9: 2.56 (0.15) seconds
  r, distance of proton from the heme iron: 6.58 (0.28) angstroms
CYP2C9 F476W mutant [24]; proton H2, dithionite/CO
  T1, 2C9 + CO: 2.34 (0.14) seconds
CYP2C9 F476W mutant [24]; proton H4′
  T1, 2C9: 2.88 (0.14) seconds
  r, distance of proton from the heme iron: 6.40 (0.32) angstroms
CYP2C9 F476W mutant [24]; proton H4′, dithionite/CO
  T1, 2C9 + CO: 2.55 (0.16) seconds
CYP2C9 F476W mutant [24]; proton H5
  T1, 2C9: 2.11 (0.10) seconds
  r, distance of proton from the heme iron: 6.47 (0.24) angstroms
CYP2C9 F476W mutant [24]; proton H5, dithionite/CO
  T1, 2C9 + CO: 2.24 (0.18) seconds
CYP2C9 F476W mutant [24]; proton H6
  T1, 2C9: 1.78 (0.08) seconds
  r, distance of proton from the heme iron: 6.79 (0.22) angstroms
CYP2C9 F476W mutant [24]; proton H6, dithionite/CO
  T1, 2C9 + CO: 1.85 (0.08) seconds
CYP2C9 F476W mutant [24]; protons CH3
  T1, 2C9: 0.67 (0.01) seconds
  r, distance of proton from the heme iron: 5.62 (0.25) angstroms
CYP2C9 F476W mutant [24]; protons CH3, dithionite/CO
  T1, 2C9 + CO: 0.65 (0.03) seconds
CYP2C9 F476W mutant [24]; protons H2′/6′
  T1, 2C9: 2.38 (0.06) seconds
  r, distance of proton from the heme iron: 7.15 (0.13) angstroms
CYP2C9 F476W mutant [24]; protons H2′/6′, dithionite/CO
  T1, 2C9 + CO: 2.54 (0.07) seconds
CYP2C9 F476W mutant [24]; protons H3′/5′
  T1, 2C9: 2.39 (0.08) seconds
  r, distance of proton from the heme iron: 6.49 (0.20) angstroms
CYP2C9 F476W mutant [24]; protons H3′/5′, dithionite/CO
  T1, 2C9 + CO: 2.39 (0.16) seconds
wild-type CYP2C9 [25]; WT
  percent of wild-type kcat/Km: 100%
wild-type CYP2C9 [25]; WT, substrate hydroxylation
  kcat: 9.0 ± 0.4 min⁻¹
wild-type CYP2C9 [25]; human, pH 7.4
  Km at 20 min: 22.9 ± 3.7 µM
